# Data published in patent publication US12428380B2 (PSYLO PTY LTD, priority 2023, dated 2025).
# Assays:
# [1] = test system: ICR mice; test: Acute restraint stress - tail suspension test (Example 51a); type: in vivo, mouse; conditions: male ICR mice after 5 h acute restraint stress, IP, tested 10 min after treatment, FIGS. 6 and 7
# Description: Male ICR mice (23±3 g) were purchased from BioLASCO (Taipei, Taiwan) at 4-5 weeks of age and allowed 5-7 days to acclimate to the animal research facility at Pharmacology Discovery Services (Taipei, Taiwan). Mice were housed in groups of 10 in a large cage (47×25×15 cm) on a 12-hour light cycle (lights on: 0700) and provided ad libitum food and water except during acute restraint stress and tail-suspension testing. Temperature was maintained at 20-24° C., and all rooms (colony and testing rooms) had similar lighting intensity. […] All experiments were conducted between 0900 to 1700 local time, during the light phase. […]
# Tail Suspension Test (TST) Procedure: Mice were individually suspended on the edge of a shelf, 58 cm above a tabletop, using adhesive tape placed approximately 1 cm from the tip of the tail, for a total duration of 7 minutes. Using a stopwatch, the experimenters blinded to treatment groups recorded the duration of immobility (defined as hanging passively and motionless) during the 5 minutes spanning from 2-7 minutes. The data from 0-2 minutes was not recorded. […]
# [2] = target: T1, 5-HT2B (Homo sapiens, UniProt P41595); test: Activation in a similar Ca2+ flux assay at a single concentration, 5-HT2B; type: cell-based; conditions: head prints 10 µM
# T1 construct: host or cells: CHO-K1
# In short: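 Single 10 μM test concentration in a FLIPR Ca2+ flux format using stably transfected CHO-K1 cells with Fluo-4 Direct dye and 2.5 mM probenecid (final). Cells loaded 50 min at 37° C before compound addition; fluorescence read on addition.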
# [3] = target: T2, 5-HT2C (Homo sapiens, UniProt P28335); test: FLIPR Ca2+ flux functional assay, 5-HT2C (HEK293); type: cell-based; conditions: HEK293 cells expressing 5-HT2C; for Emax: HEK293, agonist activity
# T2 construct: host or cells: HEK293
# T2 sequence (P28335 33-458): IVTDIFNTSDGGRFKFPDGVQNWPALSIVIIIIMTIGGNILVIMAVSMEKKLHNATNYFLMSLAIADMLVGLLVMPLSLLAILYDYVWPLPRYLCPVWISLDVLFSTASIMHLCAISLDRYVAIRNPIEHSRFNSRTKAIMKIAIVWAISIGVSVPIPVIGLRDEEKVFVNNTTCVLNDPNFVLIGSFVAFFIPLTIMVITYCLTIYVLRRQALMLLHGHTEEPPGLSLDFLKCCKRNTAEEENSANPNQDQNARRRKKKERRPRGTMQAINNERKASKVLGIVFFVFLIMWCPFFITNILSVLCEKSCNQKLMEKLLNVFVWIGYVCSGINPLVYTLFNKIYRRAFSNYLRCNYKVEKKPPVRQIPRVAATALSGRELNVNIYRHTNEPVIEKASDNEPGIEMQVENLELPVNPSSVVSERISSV
# Description: (§1) Activity at 5-HT2A, 5-HT2B and 5-HT2C receptors was determined using a FLIPR Ca2+ flux assay at WuXi AppTec Co. Ltd. (Hong Kong) Discovery Biology Unit according to their standard protocols. Briefly, stably transfected cells expressing the receptor of interest (HEK293 for 5-HT2A and 5-HT2C; CHO-K1 for 5-HT2B) were grown and plated in a 384 well plate and incubated at 37° C. and 5% CO2 overnight. A 250 mM stock solution of probenecid in FLIPR calcium assay buffer (10 mL) was freshly prepared and combined with a fluorescent dye (Fluo-4 Direct) to give a final assay concentration of 2.5 mM. Reference compounds were 4-fold serially diluted and the screening compounds were 3-fold serially diluted in 100% DMSO for 10 points using Agilent Bravo, and 750 nL was added to a 384 well compound plate using Echo along with 30 μL assay buffer. The fluorescent dye was then added to the assay plate along with assay buffer to a final volume of 40 μL. The cell plate was incubated for 50 min at 37° C. and 5% CO2 and placed into the FLIPR Tetra along with the compound plate. 10 μL of references and compounds were then transferred from the compound plate into the cell plate and the fluorescent signal was read.
# [4] = target: T3, 5-HT2A (Homo sapiens, UniProt P28223); test: FLIPR Ca2+ flux functional assay, 5-HT2A (HEK293); type: cell-based; conditions: HEK293 cells expressing 5-HT2A; for Emax: HEK293, agonist activity; for EC50: agonist activity
# T3 construct: host or cells: HEK293
# Description: as §1
# [5] = target: T1, 5-HT2B; test: FLIPR Ca2+ flux functional assay, 5-HT2B (CHO-K1); type: cell-based; conditions: CHO-K1 cells expressing 5-HT2B; for Emax: CHO-K1, agonist activity
# Description: as §1
# T3 sequence (P28223 whole entry): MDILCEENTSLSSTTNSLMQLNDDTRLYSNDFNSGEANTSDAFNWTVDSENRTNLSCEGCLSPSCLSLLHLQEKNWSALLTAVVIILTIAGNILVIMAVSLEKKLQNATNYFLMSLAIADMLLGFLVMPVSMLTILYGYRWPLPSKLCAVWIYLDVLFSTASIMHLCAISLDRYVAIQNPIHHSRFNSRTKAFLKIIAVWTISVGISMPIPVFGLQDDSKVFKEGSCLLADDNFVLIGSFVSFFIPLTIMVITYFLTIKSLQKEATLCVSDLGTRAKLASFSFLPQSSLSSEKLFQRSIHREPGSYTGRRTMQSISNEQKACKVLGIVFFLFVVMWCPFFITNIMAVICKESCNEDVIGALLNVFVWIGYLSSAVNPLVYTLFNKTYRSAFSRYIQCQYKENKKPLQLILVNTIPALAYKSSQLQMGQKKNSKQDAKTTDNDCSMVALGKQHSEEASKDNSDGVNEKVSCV
# T1 sequence (P41595 whole entry, species assumed): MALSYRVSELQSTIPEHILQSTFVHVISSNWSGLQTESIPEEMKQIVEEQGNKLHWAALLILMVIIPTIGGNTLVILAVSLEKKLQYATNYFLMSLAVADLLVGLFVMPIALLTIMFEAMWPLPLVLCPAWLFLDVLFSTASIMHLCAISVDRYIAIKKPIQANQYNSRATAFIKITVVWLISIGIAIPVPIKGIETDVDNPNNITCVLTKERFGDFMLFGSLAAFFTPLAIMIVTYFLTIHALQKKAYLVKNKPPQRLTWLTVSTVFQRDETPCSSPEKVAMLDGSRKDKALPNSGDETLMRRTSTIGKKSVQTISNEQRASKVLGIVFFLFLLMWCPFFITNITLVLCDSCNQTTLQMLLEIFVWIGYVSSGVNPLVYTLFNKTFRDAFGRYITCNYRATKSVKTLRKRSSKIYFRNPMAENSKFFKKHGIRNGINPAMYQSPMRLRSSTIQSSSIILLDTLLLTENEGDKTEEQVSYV
SMILES,immobility time in tail suspension test [1],5-HT2B % Activation @ 10 µM [2] [%],Emax [3] [%],EC50 ([3]; agonist activity) [nM],Emax [4] [%],EC50 [4] [nM],5-HT2C Emax ([3]; agonist activity) [%],5-HT2B Emax ([5]; agonist activity) [%],Emax [5] [%]
"COc1cc2c(CCN(C)C)n[nH]c2cc1F [Example A5, 2-(6-fluoro-5-methoxy-1H-indazol-3-yl)-N,N-dimethylethan-1-amine]",decrease the immobility time,44,105,281,87,44.1,–,–,–
"CN(C)CCc1n[nH]c2ccc(F)c(F)c12 [Example A69, 2-(4,5-difluoro-1H-indazol-3-yl)-N,N-dimethylethan-1-amine]",–,5,62,132,79,276,–,–,–
"CCN(C)CCc1n[nH]c2ccc(F)c(F)c12 [Example A70, 2-(4,5-difluoro-1H-indazol-3-yl)-N-ethyl-N-methylethan-1-amine]",–,0,76,226,78,383,–,–,–
"Fc1ccc2[nH]nc(CCN3CCCC3)c2c1F [Example A73, 4,5-difluoro-3-(2-(pyrrolidin-1-yl)ethyl)-1H-indazole]",–,18,70,1780,87,768,–,–,–
"COc1ccccc1CNCCc1n[nH]c2ccc(F)c(F)c12 [Example A74, 2-(4,5-difluoro-1H-indazol-3-yl)-N-(2-methoxybenzyl)ethan-1-amine]",–,0,95,133,89,59.5,–,–,–
CN(C)CCc1n[nH]c2cccc(O)c12 [Example P-6],–,–,–,–,66.4,43.1,−0.79,0.34,–
CN(C)CCc1n[nH]c2ccccc12 [Example P-7],–,–,40.2,–,-0.3,–,–,–,0.17
"COc1ccc2[nH]nc(CCN(C)C)c2c1 [Example P-8, 2-(5-methoxy-1H-indazol-3-yl)-N,N-dimethylethan-1-amine]",decrease the immobility time,–,72.4,–,70,–,–,–,17.9
"CCN(CC)CCc1n[nH]c2cccc(OC)c12 [Example P-42, 2-(4-methoxy-1H-indazol-3-yl)-N,N-diethylethan-1-amine]",–,–,70.5,–,68.8,–,–,–,0.24
"CCN(CC)CCc1n[nH]c2cccc(O)c12 [Example P-43, 3-(2-(diethylamino)ethyl)-1H-indazol-4-ol]",–,–,28.8,–,38.9,–,–,–,8.01
"CCCN(CCC)CCc1n[nH]c2cccc(OC)c12 [Example P-44, 2-(4-methoxy-1H-indazol-3-yl)-N,N-dipropylethan-1-amine]",–,–,77.2,–,97.6,–,–,–,39.4
"CCCN(CCC)CCc1n[nH]c2cccc(O)c12 [Example P-45, 3-(2-(dipropylamino)ethyl)-1H-indazol-4-ol]",–,–,40.2,–,100,–,–,–,8.93
"CCN(CC)CCc1n[nH]c2ccc(OC)cc12 [Example P-48, N,N-diethyl-2-(5-methoxy-1H-indazol-3-yl)ethan-1-amine]",–,–,4.22,–,58.6,–,–,–,16.1
"CCCN(CCC)CCc1n[nH]c2ccc(OC)cc12 [Example P-49, N,N-dipropyl-2-(5-methoxy-1H-indazol-3-yl)ethan-1-amine]",–,–,-0.46,–,67.6,–,–,–,30.7
"CCN(C)CCc1n[nH]c2ccc(OC)cc12 [Example P-51, N-ethyl-2-(5-methoxy-1H-indazol-3-yl)-N-methylethan-1-amine]",–,–,24.6,–,79.1,–,–,–,30.9
"COc1ccc2[nH]nc(CCN(C)C(C)C)c2c1 [Example P-52, N-(2-(5-methoxy-1H-indazol-3-yl)ethyl)-N-methylpropan-2-amine]",–,–,0.09,–,77.3,–,–,–,0.22
"COc1cccc2[nH]nc(CCN(C)C)c12 [Example P-55, 2-(4-methoxy-1H-indazol-3-yl)-N,N-dimethylethan-1-amine]",–,–,83.6,–,58.7,–,–,–,1.35
